Experimental data as given in PubChem BioAssay (NCI).
“And” between values parts separate entries of the source, which are not always exact repeats. Equal values may be shown once.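 A five-concentration, 48-hour dose response in 96-well plates underlies each endpoint, interpolated linearly between surrounding concentrations. At the GI50, growth is halved. At the TGI there is no net growth.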

Key:
Test in all cases: NCI-60 cell line screen, 48 h
[1] = tested on: A498 renal
[2] = tested on: COLO 205 colon
[3] = tested on: IGROV1 ovarian
[4] = tested on: MDA-MB-435
[5] = tested on: NCI/ADR-RES ovarian
[6] = tested on: RPMI-8226 leukemia
[7] = tested on: SF-295 CNS
[8] = tested on: SK-MEL-2 melanoma
[9] = tested on: SK-OV-3 ovarian
[10] = tested on: U251 CNS
[11] = tested on: UACC-62 melanoma

| Compound | TGI [1] | TGI [2] [µM] | TGI [3] [µM] | TGI [4] [µM] | TGI [5] [µM] | TGI [6] [µM] | TGI [7] [µM] | TGI [8] [µM] | TGI [9] [µM] | TGI [10] [µM] | TGI [11] [µM] | GI50 [1] [µM] | GI50 [2] | GI50 [3] [µM] | GI50 [5] [µM] | GI50 [6] | GI50 [7] [µM] | GI50 [9] [µM] | GI50 [10] [µM] | GI50 [11] [µM] |
| --- | --- | --- | --- | --- | --- | --- | --- | --- | --- | --- | --- | --- | --- | --- | --- | --- | --- | --- | --- | --- |
| O=C1OC[C@@H]2Cc3c([nH]c4ccccc34)[C@@H](c3ccc(O)cc3)N12 | > 81 µM | 40.9 | 61.1 | 68.2 | > 100 | > 80.9 | > 83.4 | 67.6 | > 95.1 | > 100 | 69.8 |  |  |  |  |  |  |  |  |  |
| CCOC(=O)c1c(SCCN2CCCC2)n(-c2ccccc2)c(=S)n(-c2ccccc2)c1=O | 22.5 µM | 3.53 | 4.47 | 5.95 | > 92 | 5.87 | > 75.7 | 28.4 | 34.5 | 16.7 | 7.29 |  |  |  |  |  |  |  |  |  |
| CC(C)=CC1C(C(=O)O)C1(C)C (stereo unspecified) | > 34.8 µM | > 750 | > 750 |  | > 750 | > 750 | > 750 | > 750 | > 750 | > 750 | > 750 |  |  |  |  |  |  |  |  |  |
| CCOC(=O)C1C(=O)CC(O)(c2ccccc2)C(C(=O)OCC)C1c1ccc(OC)cc1 (stereo unspecified) | > 100 µM | 47.9 | > 100 | 11.4 | > 55.9 | 40.6 | 17.5 | 77.6 | 89.9 | > 76.8 | > 100 |  |  |  |  |  |  |  |  |  |
| CC1=CC(=O)N(n2c(C)n[nH]c2=O)C1=O | > 100 µM | > 100 | > 100 | > 100 | > 100 | > 100 | > 100 | > 100 | > 100 | > 100 | > 100 |  |  |  |  |  |  |  |  |  |
| Cc1cc2cccc(Cl)c2nc1C(=O)c1ccccc1 |  | > 100 | > 100 |  |  | > 100 | 51.9 | > 100 |  | > 100 | > 100 |  |  |  |  |  |  |  |  |  |
| CC1CC(C#N)=C2NCCCCN2C1=O (stereo unspecified) |  | > 100 | > 100 | > 100 | > 100 | > 100 | > 100 | > 100 | > 100 | > 100 | > 100 |  |  |  |  |  |  |  |  |  |
| COc1cc([C@@H]2c3cc4c(cc3C[C@H]3COC(=O)[C@@H]32)OCO4)cc(OC)c1OC | 0.00969 µM and 0.0642 µM | 0.028 | > 50 |  | 0.202 | 6.57 | 0.00833 | > 2.32 | > 50 | 1.5 | > 50 | 0.0023 | 0.00627 µM and 0.0092 µM | 0.00618 | 0.00917 | 0.00382 µM and 0.01 µM | 0.00296 | 0.00431 | 0.00392 | 0.0028 |
| O=C1NC(=S)NC(=O)C1C(c1ccccc1[N+](=O)[O-])C1C(=O)NC(=S)NC1=O | > 100 µM | > 100 |  | > 100 | > 100 | > 100 | > 100 | > 100 |  | > 100 | > 100 |  |  |  |  |  |  |  |  |  |
| Cc1cc(O)cc(O)c1N=Nc1ccc([N+](=O)[O-])cc1 | 50.9 µM | > 100 | 66.3 | 42.4 | 52.9 | 39.8 | > 100 | 75.4 | > 100 | 53.9 | 32.2 |  |  |  |  |  |  |  |  |  |
| Cc1oc2nc(N(C)C)n3nnnc3c2c1C | > 100 µM | > 100 | > 100 | > 100 | > 100 | > 100 | > 100 |  | > 100 | > 100 | > 100 |  |  |  |  |  |  |  |  |  |
| O=c1c2cc(I)ccc2[nH]c(=S)n1Cc1ccccc1 | 54.3 µM | > 100 | 30.3 | > 100 | > 100 | > 100 | > 100 | 56 | > 100 | > 100 | > 100 |  |  |  |  |  |  |  |  |  |
| N#CSCc1cccc(Nc2cc(=O)[nH]c(=O)[nH]2)c1 | > 100 µM | > 100 | > 100 | > 100 | > 100 | > 100 | > 100 | > 100 | > 100 | > 100 | > 100 |  |  |  |  |  |  |  |  |  |
| Brc1ccc2c3c1[C@@H]1O[C@@H]1c1cccc(c1-3)[C@@H]1O[C@H]21 | > 69.1 µM | 52.2 |  | 48.3 | 45.4 | > 100 | 46 | > 71.5 | > 71.2 | 40.2 | 35.4 |  |  |  |  |  |  |  |  |  |
| CCOC(=O)c1cnc2[nH]ccn2c1=O | > 10 µM | > 10 | > 10 | > 10 | > 10 | > 10 | > 10 | > 10 | > 10 | > 10 | > 10 |  |  |  |  |  |  |  |  |  |
| COC(=O)C1CC(C=[N+](C)C)=C(SC)N1 (stereo unspecified) | > 100 µM | > 100 | > 100 | > 100 | > 100 | > 100 | > 100 | > 100 | > 100 | > 100 | > 100 |  |  |  |  |  |  |  |  |  |
| Cc1cccc(N(CCC#N)S(=O)(=O)c2ccccc2)c1 | > 100 µM | > 100 | > 100 | > 100 | > 100 | > 100 |  | > 100 | > 100 | > 100 | > 100 |  |  |  |  |  |  |  |  |  |
| COc1cc2c(cc1OC)C(=O)/C(=C/c1cc(C)c(O)c(C)c1)C2 | > 100 µM | > 100 | > 100 |  | > 100 | > 100 |  |  | > 100 | > 100 | > 100 |  |  |  |  |  |  |  |  |  |
| CCOC(=O)C(=O)N1C(C)=C(C(=O)OCC)CC(C(=O)OCC)=C1C | > 100 µM | > 100 | > 100 | > 100 |  | > 100 | > 100 | > 100 | > 100 |  | > 100 |  |  |  |  |  |  |  |  |  |
| CC(C)(CO)N1C(=O)c2ccccc2C1(O)c1ccc(Cl)cc1 (stereo unspecified) |  | > 100 | > 100 | > 100 | > 100 | > 100 | > 100 | > 100 | > 100 | > 100 | > 100 |  |  |  |  |  |  |  |  |  |
